In patent US20090324708A1, “COMPOUND HAVING INHIBITORY ACTIVITY ON A RHO-GTPASE CELL PROTEIN, A PROCESS FOR OBTAINING THE SAME, PHARMACEUTICAL COMPOSITIONS COMPRISING THEREOF AND A METHOD FOR THE TREATMENT OF RHO-GTPASE CELL PROTEIN-MEDIATED CONDITION” (Universidad Nacional De Quilmes, priority 2006, published 2009):
Marks after values point to notes of the source that are not given here.

What was measured:
Type in all cases: cell-based, mouse
[1] = system: breast carcinoma F3II cells; test: Monolayer wound assay of tumor cell migration; settings: for No of migrating cells: overnight, MEM with 10% FBS
Procedure: The present assay consists in the determination of the antimigration effect of the selected compounds on the breast carcinoma cells migration. Cell motility is a key process in the invasion and tumor metastasis processes and it is closely regulated by the Rho-GTPases family, particularly by Rac.
Tumor cell migration in vitro was measured by the “monolayer wound” assay described previously (Alonso D F, Farias E F, Urtreger A, Ladeda V, Vidal M C and Bal de Kier Joffé E: Characterization of F3II, a mammary sarcomatoid carcinoma cell line originated from a mouse adenocarcinoma. J. Surgh. Oncol 1996, 62: 288-297). 0.5 mm width lines were made in confluent monolayers. After washing with PBS, the tumor cells were incubated overnight in MEM with 10% FBS and the monolayers were fixed and stained with methylene blue. The number of cells that moved along the free space were counted by using a 0.36 mm^2 graded grid, using a magnification of 100×, in 3 independent fields per each line.
Doses from 1 to 50 μM of the compounds were assessed, thereby finding a saturation of the antimigration effect in the 3 compounds studied, starting from 10 μM, obtaining an approximate inhibition of 30 to 50% respectively.

[2] = system: breast carcinoma F3II cells; test: Effect on quiescent F3II cells / cytotoxicity (toluidine staining and MTT assay); settings: absence of FBS; for cytotoxic effect: 100 μM, 24 hours, semiconfluent monolayers, toluidine and MTT assay; for IC50: Quiescent Cells, F3II, 24 hs
Procedure: (§1) The antiproliferative effect of the above mentioned compounds on breast carcinoma F3II cells is disclosed in the present example. The synthesized compounds are purine nucleoside derivatives which present chemical modifications in either the ribose and/or in the base. These modifications mainly consisted in acetylations of positions 2′-3′ of the ribose, varying the number of carbon atoms of the acyl substituents in position 5′. The cells were treated for 72 hours in the presence of fetal bovine serum 10% with different doses of the compounds, with the aim of determining the inhibitory concentration 50% (IC50). The cell growth was estimated by toluidine test, for which the cell monolayers were fixed with formalin (Formol 10%) and stained with toluidine blue 0.5%. Subsequently, the stained cells were thoroughly washed with PBS and solubilized with 1% SDS. Finally, the number of cells was estimated by measuring the absorbance values at 595 nm. The IC50 values of the compounds Nucl 1, Nucl 4 and Nucl 5, both for cells in the exponential growth phase and for quiescent cells, are depicted in Table 2.
In addition, the effect of the analogs showing antiproliferative effect on quiescent cells, was studied in order to discriminate between an antitumoral effect and an unspecific cytotoxic effect. For this purpose, the semiconfluent cell monolayers were incubated for 24 hours in the absence of FBS with the analogs Nucl 1, Nucl 4 and Nucl 5, at a concentration of 100 μM. Subsequently, the cells were fixed and stained with toluidine in order to determine the number of cells. Simultaneously, the cytotoxic effect was determined by the MTT assay.

[3] = system: breast carcinoma F3II cells; test: Antiproliferative effect on growing F3II cells (toluidine test); settings: 10% fetal bovine serum
Description: as §1, with “The cells were treated for 72 hours in the presence of fetal bovine serum 10% with different doses of the compounds, with the aim of determining the inhibitory concentration 50% (IC50).” left out

Q: `CC(=O)OC[C@H]1O[C@@H](n2cnc3c(=O)[nH]c(N)nc32)[C@H](OC(C)=O)[C@@H]1OC(C)=O` [Nucl 1, 2′,3′,5′-tri-O-acetyl-guanosine] was tested. Which “No of migrating cells” value ([1]; 10 μM) did it give?
A: The value was 97.7*.

Q: What about the inhibition at 10 µM ([1]; Mus musculus) of the same molecule?
A: The inhibition at 10 µM was 32.2%.

Q: What about the cytotoxic effect [2] of the same molecule?
A: Its cytotoxic effect is “In none of the cases a cytotoxic effect was observed”.

Q: And the IC50 ([2]; Mus musculus)?
A: Its IC50 is over 100 µM.

Q: What about the IC50 ([3]; Mus musculus, 48 hs, read-out: IC50 48 hs) of the same molecule?
A: The IC50 was 26 µM.

Q: What about the IC50 ([3]; Mus musculus, 72 hs, read-out: IC50 72 hs) of the same molecule?
A: The IC50 was 68 µM.

Q: How did the “Inhibition % (cell migration)” value ([1]; 10 μM) turn out when `CC(=O)OC[C@H]1O[C@@H](n2cnc3c(Cl)ncnc32)[C@H](OC(C)=O)[C@@H]1OC(C)=O` [Nucl 4, 6-chloro-2′,3′,5′-tri-O-acetyl-purine riboside] was run?
A: The value was 40.6%.

Q: What about the “No of migrating cells” value ([1]; 10 μM) of the same molecule?
A: Its value is 85.5**.

Q: What about the cytotoxic effect [2] of the same molecule?
A: The cytotoxic effect was “In none of the cases a cytotoxic effect was observed”.

Q: And the IC50 [2]?
A: Its IC50 is over 100 µM.

Q: What about the IC50 ([3]; 48 hs, read-out: IC50 48 hs) of the same molecule?
A: The IC50 was 60 µM.

Q: What about the IC50 ([3]; 72 hs, read-out: IC50 72 hs) of the same molecule?
A: Its IC50 is 56 µM.
